Reference: ChEMBL document CHEMBL4831511, “Fluorovinylsulfones and -Sulfonates as Potent Covalent Reversible Inhibitors of the Trypanosomal Cysteine Protease Rhodesain: Structure-Activity Relationship, Inhibition Mechanism, Metabolism, and In Vivo Studies” (J Med Chem, 2021)
Activity calls are given as the source filed them. The rule behind the calls is not given here.

What was measured:
Rhodesain [1] = molecular target: T1, Rhodesain (Trypanosoma brucei rhodesiense, UniProt Q95PM0); assay: Inhibition of Trypanosoma brucei rhodesain assessed as fluorescence using Cbz-Phe-Arg-AMC as substrate measured at second inhibition step by fluorometric enzyme assays
T1 sequence (Q95PM0 whole entry): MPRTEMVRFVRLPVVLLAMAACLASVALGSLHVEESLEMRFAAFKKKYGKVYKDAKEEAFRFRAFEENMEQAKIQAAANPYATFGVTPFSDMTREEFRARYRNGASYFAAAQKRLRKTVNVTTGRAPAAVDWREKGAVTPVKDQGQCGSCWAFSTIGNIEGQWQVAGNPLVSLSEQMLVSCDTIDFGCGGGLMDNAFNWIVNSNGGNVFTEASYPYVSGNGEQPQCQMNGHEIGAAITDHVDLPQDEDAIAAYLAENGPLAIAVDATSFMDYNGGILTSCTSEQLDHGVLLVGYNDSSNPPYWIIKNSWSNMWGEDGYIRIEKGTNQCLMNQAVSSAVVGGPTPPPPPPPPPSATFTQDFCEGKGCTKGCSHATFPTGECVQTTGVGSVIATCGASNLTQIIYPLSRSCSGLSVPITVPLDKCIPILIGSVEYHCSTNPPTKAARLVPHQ

Dengue virus = assay: Inhibition of Dengue virus NS2B-NS3 protease assessed as fluorescent emission using boc-Gly-Arg-Arg-AMC at 11 uM by microplate reader relative to control
Homo sapiens [2] = organism: Homo sapiens; assay: Inhibition of caspase-like activity of human 20S proteasome at 11 uM using Cbz-Leu-Leu-Glu-AMC as fluorogenic substrate by microplate reader relative to control
[3] = molecular target: Proteasome Macropain subunit (Homo sapiens) (UniProt P49721); assay: Inhibition of trypsin-like activity of human 20S proteasome at 11 uM using boc-Leu-Arg-Arg-AMC as fluorogenic substrate by microplate reader relative to control
Proteasome Macropain subunit (Homo sapiens), sequence (P49721 whole entry): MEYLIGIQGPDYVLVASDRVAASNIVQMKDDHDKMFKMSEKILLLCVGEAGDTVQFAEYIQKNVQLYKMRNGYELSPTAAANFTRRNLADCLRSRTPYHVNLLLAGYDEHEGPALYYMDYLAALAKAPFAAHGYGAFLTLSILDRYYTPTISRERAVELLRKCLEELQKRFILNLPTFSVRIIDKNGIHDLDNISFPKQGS

HeLa = assay: Cytotoxicity against human HeLa cells by Alamar blue assay; format: functional
Homo sapiens [4] = organism: Homo sapiens; assay: Inhibition of alpha-chymotrypsin-like activity of human 20S proteasome at 11 uM using Succ-Leu-Leu-Val-Tyr-AMC as fluorogenic substrate by microplate reader relative to control
J774.1 = assay: Cytotoxicity against mouse J774.1 cells by Alamar blue assay; format: functional
[5] = tested on: Trypanosoma brucei brucei; assay: Antiprotozoal activity against Trypanosoma brucei brucei BS449 assessed as luminescence incubated for 24 to 48 hrs by ATPlite assay; format: functional, organism-based
[6] = molecular target: Rhodesain (Trypanosoma brucei rhodesiense) (UniProt Q95PM0); assay: Inhibition of Trypanosoma brucei rhodesain assessed as rate constant of dissociation of the final complex using Cbz-Phe-Arg-AMC as substrate by fluorometric enzyme assays
Rhodesain (Trypanosoma brucei rhodesiense), sequence (Q95PM0 1-450): as the sequence (Q95PM0 whole entry) above

[7] = molecular target: Rhodesain (Trypanosoma brucei rhodesiense) (UniProt Q95PM0); assay: Inhibition of Trypanosoma brucei rhodesain assessed as rate constant of association using Cbz-Phe-Arg-AMC as substrate by fluorometric enzyme assays
Rhodesain [8] = molecular target: T1, Rhodesain; assay: Inhibition of Trypanosoma brucei rhodesain assessed as fluorescence using Cbz-Phe-Arg-AMC as substrate measured using Dixon equation by fluorometric enzyme assays
[9] = molecular target: Rhodesain (Trypanosoma brucei rhodesiense) (UniProt Q95PM0); assay: Binding affinity to Trypanosoma brucei rhodesain assessed as protein-ligand adducts by MALDI-TOF MS analysis
Procathepsin L [10] = molecular target: T2, Procathepsin L (Homo sapiens, UniProt P07711); assay: Inhibition of human liver CatL assessed as fluorescence using Cbz-Phe-Arg-AMC as substrate measured at second inhibition step by fluorometric enzyme assays
T2 sequence (P07711 whole entry): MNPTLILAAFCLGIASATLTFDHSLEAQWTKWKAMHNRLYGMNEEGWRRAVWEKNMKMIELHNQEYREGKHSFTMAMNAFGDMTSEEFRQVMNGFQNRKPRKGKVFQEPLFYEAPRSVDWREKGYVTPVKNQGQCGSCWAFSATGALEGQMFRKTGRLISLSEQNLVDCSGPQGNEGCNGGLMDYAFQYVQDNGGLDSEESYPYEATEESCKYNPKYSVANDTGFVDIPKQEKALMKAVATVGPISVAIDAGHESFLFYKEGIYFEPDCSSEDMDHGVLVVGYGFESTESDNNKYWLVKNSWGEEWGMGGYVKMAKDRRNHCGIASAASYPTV

Cathepsin B = Cathepsin B (Homo sapiens, UniProt P07858); assay: Inhibition of human liver CatB assessed as fluorescence using Cbz-Phe-Arg-AMC as substrate at 11 uM by fluorometric enzyme assays
[11] = tested on: Trypanosoma brucei brucei; assay: Antiprotozoal activity against Trypanosoma brucei brucei TC211 assessed as luminescence incubated for 24 to 48 hrs by ATPlite assay; format: functional, organism-based
Procathepsin L [12] = molecular target: T2, Procathepsin L; assay: Inhibition of human CatL assessed as fluorescence using Cbz-Phe-Arg-AMC as substrate measured using Dixon equation by fluorometric enzyme assays; design: species or system Liver
[13] = tested on: cathepsin L (CatL) versus rhodesain; assay: Selectivity index, ratio of Ki for human liver CatL to Trypanosoma brucei rhodesain; settings: read-out: Selectivity Index
[14] = molecular target: Rhodesain (Trypanosoma brucei rhodesiense) (UniProt Q95PM0); assay: Reversible inhibition of Trypanosoma brucei rhodesain assessed as reversibility by measuring residual enzymatic activity using Cbz-Phe-Arg-AMC as substrate after 1 hr by fluorometry based dialysis experiment relative to control

Compound: Cc1ccc(C[C@H](NC(=O)c2cc(F)cc(F)c2)C(=O)N[C@H](/C=C(\F)S(=O)(=O)c2ccccc2)CCc2ccccc2)cc1
- Ki (Rhodesain [1]): 100 nM

Compound: O=C(N[C@@H](Cc1ccccc1)C(=O)N[C@H](/C=C(\F)S(=O)(=O)c1ccccc1)CCc1ccccc1)c1cc(F)cc(F)c1
- Ki (Rhodesain [1]): 350 nM

Compound: Cc1cccc(C[C@H](NC(=O)c2ccc3c(c2)OCCO3)C(=O)N[C@H](/C=C(\F)S(=O)(=O)c2ccccc2)CCc2ccccc2)c1
- Ki (Rhodesain [1]): 35 nM

Compound: CN1CCN(C(=O)N[C@@H](Cc2ccccc2)C(=O)N[C@H](/C=C(\F)S(=O)(=O)c2ccccc2)CSCc2ccccc2)CC1
- inhibition (Dengue virus): 13%
- inhibition (Homo sapiens [2]): inactive
- inhibition [3]: 14%
- CC50 (HeLa): 8000 nM
- inhibition (Homo sapiens [4]): 71%
- CC50 (J774.1): 8700 nM
- EC50 [5]: 3000 nM

Compound: O=C(N[C@@H](Cc1ccccc1)C(=O)N[C@H](/C=C(\F)S(=O)(=O)Oc1ccccc1)CCc1ccccc1)c1ccc2c(c1)OCCO2
- Ki (Rhodesain [1]): 45 nM
- K [6]: 0.011 s⁻¹
- K [7]: 0.045 s⁻¹
- Ki (Rhodesain [8]): 9 nM

Compound: CN1CCN(C(=O)N[C@@H](Cc2ccccc2)C(=O)N[C@H](/C=C(\F)S(=O)(=O)Oc2ccccc2)CCc2ccccc2)CC1
- Ki (Rhodesain [1]): 108 nM
- Activity [9]: Active

Compound: Cc1cccc(C[C@H](NC(=O)c2cc(F)cc(F)c2)C(=O)N[C@H](/C=C(\F)S(=O)(=O)c2ccccc2)CCc2ccccc2)c1
- Ki (Rhodesain [1]): 329 nM

Compound: CN1CCN(C(=O)N[C@@H](Cc2ccccc2)C(=O)N[C@H](/C=C/S(=O)(=O)c2ccccc2)CCc2ccccc2)CC1 [K-777]
- CC50 (HeLa): > 10000 nM
- CC50 (J774.1): 41000 nM
- EC50 [5]: 180 nM

Compound: O=C(N[C@@H](Cc1ccccc1)C(=O)N[C@H](/C=C(\F)S(=O)(=O)Oc1ccccc1)CCc1ccccc1)OCc1ccccc1
- Ki (Rhodesain [1]): 158 nM
- Activity [9]: Active

Compound: CN1CCN(C(=O)N[C@@H](Cc2ccccc2)C(=O)N[C@H](/C=C(\F)S(=O)(=O)c2ccccc2)CCc2ccccc2)CC1
- inhibition (Dengue virus): inactive
- inhibition (Homo sapiens [2]): 16%
- inhibition [3]: inactive
- CC50 (HeLa): 10000 nM
- inhibition (Homo sapiens [4]): 13%
- Activity [9]: Active
- CC50 (J774.1): 38000 nM
- EC50 [5]: 12500 nM

Compound: O=C(N[C@@H](Cc1ccccc1)C(=O)N[C@H](/C=C(\F)S(=O)(=O)Cc1ccccc1)CCc1ccccc1)c1ccc2c(c1)OCCO2
- Ki (Rhodesain [1]): 46 nM

Compound: CSCC[C@@H](/C=C(\F)S(=O)(=O)c1ccccc1)NC(=O)[C@H](Cc1ccccc1)NC(=O)N1CCN(C)CC1
- inhibition (Homo sapiens [2]): 18%
- inhibition [3]: inactive
- CC50 (HeLa): 77000 nM
- inhibition (Homo sapiens [4]): inactive
- CC50 (J774.1): 43000 nM
- EC50 [5]: 14100 nM

Compound: O=C(N[C@@H](Cc1ccccc1)C(=O)N[C@H](/C=C(\F)S(=O)(=O)Cc1ccccc1)CCc1ccccc1)c1ccncc1
- Ki (Rhodesain [1]): 53 nM
- Ki (Procathepsin L [10]): 226 nM
- inhibition (Cathepsin B): 44%

Compound: Cc1ccc(C[C@H](NC(=O)c2ccncc2)C(=O)N[C@H](/C=C/S(=O)(=O)Oc2ccccc2)CCc2ccccc2)cc1
- Ki (Rhodesain [1]): 0.45 nM

Compound: Cc1cccc(C[C@H](NC(=O)c2cc(F)cc(F)c2)C(=O)N[C@H](/C=C(\F)S(=O)(=O)Cc2ccccc2)CCc2ccccc2)c1
- Ki (Rhodesain [1]): 380 nM

Compound: Cc1cccc(C[C@H](NC(=O)c2ccc3c(c2)OCCO3)C(=O)N[C@H](/C=C(\F)S(=O)(=O)Oc2ccccc2)CCc2ccccc2)c1
- Ki (Rhodesain [1]): 59 nM
- K [6]: 0.015 s⁻¹
- K [7]: 0.074 s⁻¹
- Ki (Rhodesain [8]): 10 nM

Compound: Cc1cccc(C[C@H](NC(=O)c2ccc3c(c2)OCCO3)C(=O)N[C@H](/C=C(\F)S(=O)(=O)Cc2ccccc2)CCc2ccccc2)c1
- Ki (Rhodesain [1]): 92 nM

Compound: O=C(N[C@H](/C=C(\F)S(=O)(=O)Oc1ccccc1)CCc1ccccc1)[C@H](Cc1ccccc1)NC(=O)N1CCNCC1
- Ki (Rhodesain [1]): 192 nM

Compound: Cc1cccc(C[C@H](NC(=O)c2ccncc2)C(=O)N[C@H](/C=C(\F)S(=O)(=O)c2ccccc2)CCc2ccccc2)c1
- Ki (Rhodesain [1]): 25 nM
- Ki (Procathepsin L [10]): 49 nM

Compound: Cc1ccc(C[C@H](NC(=O)c2ccc3c(c2)OCCO3)C(=O)N[C@H](/C=C(\F)S(=O)(=O)c2ccccc2)CCc2ccccc2)cc1
- CC50 (HeLa): > 100000 nM
- EC50 [11]: 800 nM

Compound: Cc1cccc(C[C@H](NC(=O)c2cc(F)cc(F)c2)C(=O)N[C@H](/C=C(\F)S(=O)(=O)Oc2ccccc2)CCc2ccccc2)c1
- Ki (Rhodesain [1]): 152 nM
- K [6]: 0.01 s⁻¹
- K [7]: 0.055 s⁻¹
- Ki (Rhodesain [8]): 21 nM

Compound: Cc1ccc(C[C@H](NC(=O)c2cc(F)cc(F)c2)C(=O)N[C@H](/C=C(\F)S(=O)(=O)Cc2ccccc2)CCc2ccccc2)cc1
- Ki (Rhodesain [1]): 29 nM

Compound: Cc1ccc(C[C@H](NC(=O)c2ccc3c(c2)OCCO3)C(=O)N[C@H](/C=C(\F)S(=O)(=O)Oc2ccccc2)CCc2ccccc2)cc1
- Ki (Rhodesain [1]): 98 nM
- Ki (Procathepsin L [10]): 348 nM
- inhibition (Dengue virus): 11%
- inhibition (Homo sapiens [2]): 31%
- K [6]: 0.005 s⁻¹
- inhibition [3]: inactive
- CC50 (HeLa): > 100000 nM
- Ki (Procathepsin L [12]): 39 nM
- selectivity ratio [13]: 6
- inhibition (Homo sapiens [4]): 22%
- K [7]: 0.065 s⁻¹
- inhibition (Cathepsin B): 14%
- Ki (Rhodesain [8]): 7 nM
- EC50 [5]: 140 nM

Compound: O=C(N[C@@H](Cc1ccccc1)C(=O)N[C@H](/C=C(\F)S(=O)(=O)Cc1ccccc1)CCc1ccccc1)c1cc(F)cc(F)c1
- Ki (Rhodesain [1]): 124 nM

Compound: Cc1ccc(C[C@H](NC(=O)c2ccc3c(c2)OCCO3)C(=O)N[C@H](/C=C(\F)S(=O)(=O)Cc2ccccc2)CCc2ccccc2)cc1
- Ki (Rhodesain [1]): 14 nM
- Ki (Procathepsin L [10]): 76 nM
- selectivity ratio [13]: 6
- inhibition (Cathepsin B): 8%

Compound: O=C(N[C@@H](Cc1ccccc1)C(=O)N[C@H](/C=C(\F)S(=O)(=O)c1ccccc1)CCc1ccccc1)c1ccc2c(c1)OCCO2
- inhibition (Homo sapiens [2]): 26%
- inhibition [3]: inactive
- inhibition (Homo sapiens [4]): inactive

Compound: Cc1cccc(C[C@H](NC(=O)c2ccncc2)C(=O)N[C@H](/C=C(\F)S(=O)(=O)Cc2ccccc2)CCc2ccccc2)c1
- Ki (Rhodesain [1]): 61 nM
- Ki (Procathepsin L [10]): 122 nM
- selectivity ratio [13]: 2

Compound: Cc1ccc(C[C@H](NC(=O)c2ccncc2)C(=O)N[C@H](/C=C(\F)S(=O)(=O)Oc2ccccc2)CCc2ccccc2)cc1
- Ki (Rhodesain [1]): 24 nM
- Ki (Procathepsin L [10]): 313 nM
- inhibition (Dengue virus): inactive
- inhibition (Homo sapiens [2]): 44%
- K [6]: 0.01 s⁻¹
- inhibition [3]: 10%
- Activity [14]: 89%
- CC50 (HeLa): > 100000 nM
- EC50 [11]: 1900 nM
- Ki (Procathepsin L [12]): 78 nM
- selectivity ratio [13]: 26
- inhibition (Homo sapiens [4]): 20%
- K [7]: 0.075 s⁻¹
- inhibition (Cathepsin B): 38%
- Ki (Rhodesain [8]): 3 nM

Compound: O=C(N[C@@H](Cc1ccccc1)C(=O)N[C@H](/C=C(/F)S(=O)(=O)Oc1ccccc1)CCc1ccccc1)c1ccncc1
- Ki (Rhodesain [1]): 525 nM
- Activity [9]: Active

Compound: Cc1cccc(C[C@H](NC(=O)c2ccncc2)C(=O)N[C@H](/C=C(\F)S(=O)(=O)Oc2ccccc2)CCc2ccccc2)c1
- Ki (Rhodesain [1]): 94 nM
- Ki (Procathepsin L [10]): 266 nM
- K [6]: 0.005 s⁻¹
- Ki (Procathepsin L [12]): 30 nM
- selectivity ratio [13]: 4
- K [7]: 0.062 s⁻¹
- inhibition (Cathepsin B): 50%
- Ki (Rhodesain [8]): 7 nM

Compound: Cc1ccc(C[C@H](NC(=O)c2cc(F)cc(F)c2)C(=O)N[C@H](/C=C(\F)S(=O)(=O)Oc2ccccc2)CCc2ccccc2)cc1
- Ki (Rhodesain [1]): 34 nM
- K [6]: 0.009 s⁻¹
- K [7]: 0.049 s⁻¹
- Ki (Rhodesain [8]): 5 nM

Compound: Cc1ccc(C[C@H](NC(=O)c2ccncc2)C(=O)N[C@H](/C=C(\F)S(=O)(=O)c2ccccc2)CCc2ccccc2)cc1
- inhibition (Homo sapiens [2]): 28%
- inhibition [3]: 12%
- Activity [14]: 29%
- CC50 (HeLa): > 100000 nM
- EC50 [11]: 1900 nM
- inhibition (Homo sapiens [4]): 13%

Compound: Cc1ccc(C[C@H](NC(=O)c2cc[n+]([O-])cc2)C(=O)N[C@H](/C=C/S(=O)(=O)Oc2ccccc2)CCc2ccccc2)cc1
- Ki (Rhodesain [1]): 1.5 nM
